“And” between values parts separate entries of the source, which are not always exact repeats. Equal entries are not always repeated.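 The compound was tested at five concentrations on cells cultured in 96-well plates, with a 48-hour exposure period. GI50 = concentration required for 50% inhibition of growth. The concentration for full growth arrest is given as TGI.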 Where only a bound is given, the exact number is not on record here.

This is an account of results in PubChem BioAssay (NCI).

Test systems include K-562 leukemia; SNB-78 CNS; SW-620 colon; RXF 393 renal; DMS 273 small cell lung; HCT-15 colon; NCI-H522 lung; HCT-116 colon; LXFL 529 NSCLC; KM12 colon; M19-MEL melanoma; BT-549 breast.
What all share (assay): NCI anticancer screen, dose series, 48 h

`CCC(C)CCOC(=O)c1ccc(N=Cc2ccc(C=Nc3ccc(C(=O)OCCC(C)CC)cc3)cc2)cc1` (stereo not drawn): the TGI with K-562 leukemia, in the assay on SNB-78 CNS, in the assay with SW-620 colon, in the assay on RXF 393 renal, with DMS 273 small cell lung and in the assay on HCT-15 colon was > 100 µM each time. Moreover, the TGI in the assay with NCI-H522 lung, in the assay with HCT-116 colon and in the assay on LXFL 529 NSCLC was > 100 µM in each case.
`Nc1ncnc2c1ncn2[C@]1(CO)C=C(CO)C(O)C1O` (stereo partly drawn): the TGI in the assay with SNB-78 CNS, in the assay with SW-620 colon, with RXF 393 renal, in the assay with DMS 273 small cell lung, with HCT-15 colon and with NCI-H522 lung was > 100 µM each time. In addition, the TGI in the assay on HCT-116 colon, in the assay on LXFL 529 NSCLC and with KM12 colon was > 100 µM in each case.
`COC(=O)C(Cc1cc(OC)c(OC)c(OC)c1)C(=O)OC`: the TGI in the assay with M19-MEL melanoma, in the assay on K-562 leukemia, in the assay on SW-620 colon, in the assay on RXF 393 renal, in the assay with DMS 273 small cell lung and in the assay with HCT-15 colon was > 320 µM each time. The TGI in the assay with NCI-H522 lung, in the assay with LXFL 529 NSCLC and in the assay on KM12 colon was > 320 µM throughout.
In the case of `COc1ccc(NC(=O)C(=O)c2c(O)c3ccc(O)cc3oc2=O)c([N+](=O)[O-])c1`, the TGI in the assay with M19-MEL melanoma, in the assay on K-562 leukemia, in the assay on SW-620 colon, in the assay on RXF 393 renal, with DMS 273 small cell lung and in the assay with HCT-15 colon was > 100 µM each time. Further, the TGI in the assay with NCI-H522 lung, in the assay with HCT-116 colon, in the assay on LXFL 529 NSCLC and in the assay on KM12 colon was > 100 µM in each case.
With `CC(C)(O)[C@@H]1CC[C@@]2(C)CCCC(O)C2(O)C1` (stereo partly drawn), the TGI in the assay on M19-MEL melanoma, in the assay on K-562 leukemia, with SW-620 colon, in the assay on DMS 273 small cell lung, with HCT-15 colon and in the assay with NCI-H522 lung was > 100 µM in each case. Further, the TGI with HCT-116 colon, with LXFL 529 NSCLC and in the assay on KM12 colon was > 100 µM throughout.
Turning to `OCCN1CCN(CCCN2c3ccccc3Sc3ccc(Cl)cc32)CC1`, the GI50 with K-562 leukemia is 2.1 µM; with SW-620 colon, 1.77 µM; in the assay with RXF 393 renal, 1.96 µM; in the assay with HCT-15 colon it was 2.39 µM; in the assay with NCI-H522 lung it was 1.5 µM; with HCT-116 colon, 1.76 µM. The GI50 in the assay on BT-549 breast is 4.49 µM; with KM12 colon it was 1.91 µM. Moreover, the TGI with K-562 leukemia was 4.45 µM; in the assay with SW-620 colon, 3.52 µM; with RXF 393 renal it was 7.68 µM; with HCT-15 colon, 6.13 µM; with NCI-H522 lung it was 3.13 µM; in the assay with HCT-116 colon, 3.55 µM. Also, the values for the TGI with BT-549 breast and with KM12 colon were 16.6 µM and 3.69 µM, respectively.
Take `CN(c1ncccc1CNc1nc(Nc2ccc3c(c2)CC(=O)N3)ncc1C(F)(F)F)S(C)(=O)=O`: the GI50 was 2.97 µM and 3.45 µM in the assay on K-562 leukemia; 1.56 µM and 2.89 µM in the assay with SW-620 colon; 1.61 µM and 1.48 µM with RXF 393 renal; 5.14 µM and 4.9 µM with HCT-15 colon; 1.81 µM and 2.24 µM in the assay with NCI-H522 lung; 1.52 µM and 2.5 µM in the assay on HCT-116 colon. Further, the GI50 in the assay on BT-549 breast was 2.21 µM and 2.53 µM; in the assay on KM12 colon it was 0.367 µM and 0.425 µM. The TGI was > 100 µM in the assay on K-562 leukemia; > 32.7 µM in the assay on SW-620 colon; 3.98 µM and 4.08 µM in the assay on RXF 393 renal; > 80.5 µM in the assay with HCT-15 colon; 5.41 µM and 7.71 µM in the assay with NCI-H522 lung; 12.6 µM and > 10 µM in the assay with HCT-116 colon. Also, the TGI was 7 µM and 9.25 µM in the assay with BT-549 breast; 4.52 µM and 7.35 µM with KM12 colon.
For the compound `O=S(=O)(NCCCNc1nccc(-c2c(-c3ccc(O)cc3)nc3sccn23)n1)c1ccc(F)cc1`, the GI50 is 1.67 µM in the assay with K-562 leukemia; 3.66 µM in the assay with SW-620 colon; 2.74 µM in the assay on RXF 393 renal; 2.61 µM in the assay on HCT-15 colon; 1.83 µM with NCI-H522 lung; 1.25 µM with HCT-116 colon. Also, the GI50 in the assay with BT-549 breast is 2.36 µM; with KM12 colon, 2.02 µM. Besides, the TGI was > 100 µM with K-562 leukemia; > 100 µM in the assay with SW-620 colon; > 100 µM with RXF 393 renal; 10 µM with HCT-15 colon; 6.27 µM in the assay on NCI-H522 lung; 4.77 µM with HCT-116 colon. The values for the TGI in the assay on BT-549 breast and in the assay on KM12 colon were 10.4 µM and 5.46 µM, respectively.
`CCN(CC)c1ccc(/C=N/NC(=O)CSc2nc3ccccc3c(=O)n2CCc2ccc(S(N)(=O)=O)cc2)c(O)c1`: the GI50 is 1.75 µM in the assay on K-562 leukemia; 3.12 µM in the assay on SW-620 colon; 2.17 µM in the assay on RXF 393 renal; 2.82 µM in the assay on HCT-15 colon; 3.17 µM in the assay with NCI-H522 lung; 0.927 µM in the assay with HCT-116 colon. The GI50 with BT-549 breast was 2.21 µM; with KM12 colon, 1.56 µM. For the same compound, the TGI is > 100 µM in the assay on K-562 leukemia; > 100 µM in the assay on SW-620 colon; 32.2 µM in the assay with RXF 393 renal; > 100 µM in the assay with HCT-15 colon; > 100 µM with NCI-H522 lung; 10.7 µM with HCT-116 colon. Further, the TGI with BT-549 breast and in the assay with KM12 colon was > 100 µM each time.
For the compound `COc1cc(C2Cc3ncccc3-c3[nH]c(=O)c4cccnc4c32)cc(OC)c1OC` (stereo not drawn), the GI50 is 0.313 µM in the assay on K-562 leukemia; 0.412 µM in the assay on SW-620 colon; 0.289 µM in the assay on RXF 393 renal; 0.809 µM in the assay on HCT-15 colon; 0.204 µM in the assay on NCI-H522 lung; 0.456 µM in the assay on HCT-116 colon. For the same compound, the GI50 in the assay on BT-549 breast is 0.633 µM; in the assay with KM12 colon, 0.373 µM. Moreover, the TGI is > 100 µM in the assay on K-562 leukemia; > 100 µM in the assay with SW-620 colon; 2.01 µM in the assay on RXF 393 renal; > 100 µM in the assay with HCT-15 colon; 0.635 µM with NCI-H522 lung; > 100 µM in the assay on HCT-116 colon. The TGI in the assay with BT-549 breast was 66.6 µM; with KM12 colon, > 100 µM.
As for `O=c1c2c(=NCCN3CCCC3)cc3c(=O)n(CCCN4CCOCC4)c(=O)c4c(-c5ccc(CN6CCCC6)cc5)cc(c(O)n1CCCN1CCOCC1)c2c4-3`, the GI50 with K-562 leukemia was 0.0195 µM; with SW-620 colon, 0.0186 µM; in the assay with RXF 393 renal, 0.0204 µM; in the assay on HCT-15 colon, 0.0664 µM; in the assay with NCI-H522 lung it was 0.0265 µM; in the assay on HCT-116 colon it was 0.0101 µM. The GI50 was 0.116 µM in the assay with BT-549 breast and 0.0661 µM in the assay on KM12 colon. The TGI with K-562 leukemia was > 100 µM; in the assay on SW-620 colon it was 0.342 µM; with RXF 393 renal, 0.0779 µM; in the assay on HCT-15 colon it was 1.11 µM; in the assay on NCI-H522 lung it was 0.135 µM; in the assay with HCT-116 colon, 0.209 µM. In addition, the TGI in the assay with BT-549 breast was found to be 0.5 µM; in the assay with KM12 colon, 0.841 µM.
With `Cc1nc([P+](c2ccccc2)(c2ccccc2)c2ccccc2)c(Sc2sc(-c3ccccc3)nc2[P+](c2ccccc2)(c2ccccc2)c2ccccc2)o1`, the GI50 in the assay on K-562 leukemia was 0.368 µM; in the assay with SW-620 colon it was 0.637 µM; with RXF 393 renal it was 1.78 µM; in the assay on HCT-15 colon it was 2.15 µM; in the assay on NCI-H522 lung it was 1.43 µM; with HCT-116 colon, 0.896 µM. Besides, the GI50 in the assay with BT-549 breast is 1.28 µM; in the assay with KM12 colon, 1.39 µM. In addition, the TGI in the assay on K-562 leukemia is 5.9 µM; with SW-620 colon, 2.85 µM; in the assay on RXF 393 renal, 5.26 µM; in the assay on HCT-15 colon, 7.68 µM; with NCI-H522 lung, 6.15 µM; in the assay with HCT-116 colon, 2.94 µM. In addition, the TGI was determined as 6.24 µM in the assay on BT-549 breast and 3.35 µM with KM12 colon.
As to `CCOC(=O)c1ccc(NC(=O)Nc2nncs2)cc1`, the GI50 was 0.0754 µM in the assay on K-562 leukemia; 0.0818 µM in the assay on SW-620 colon; 0.14 µM in the assay on RXF 393 renal; 0.0688 µM in the assay with HCT-15 colon; 0.0746 µM in the assay on NCI-H522 lung; 0.109 µM with HCT-116 colon. Besides, the GI50 in the assay on BT-549 breast is 0.735 µM; in the assay with KM12 colon it was 0.136 µM. Further, the TGI with K-562 leukemia was > 46.6 µM; in the assay with SW-620 colon it was > 100 µM; in the assay with RXF 393 renal, 0.489 µM; in the assay on HCT-15 colon, > 100 µM; with NCI-H522 lung, 1.87 µM; with HCT-116 colon it was 11.8 µM. Besides, the results for the TGI with BT-549 breast and in the assay with KM12 colon were 13.3 µM and 11.8 µM, respectively.
On to `NS(=O)(=O)c1ccc(Nc2cc(-c3cccc(O)c3)[nH]n2)cc1`, for which the GI50 in the assay on K-562 leukemia is > 25 µM; in the assay on SW-620 colon, > 25 µM; in the assay with RXF 393 renal, > 25 µM; in the assay with HCT-15 colon, > 25 µM; with NCI-H522 lung it was 22.6 µM; in the assay with HCT-116 colon, > 25 µM. The GI50 was > 24.1 µM in the assay with BT-549 breast and > 23.7 µM with KM12 colon. The TGI in the assay on K-562 leukemia, in the assay with SW-620 colon, with RXF 393 renal, with HCT-15 colon, with NCI-H522 lung and in the assay on HCT-116 colon was > 25 µM in each case. The TGI in the assay with BT-549 breast and in the assay with KM12 colon was > 25 µM in each case.
Take `CC(C)c1[nH]nc(C(N)=O)c1N=NN(C)C`: the TGI with K-562 leukemia was > 100 µM; in the assay on SW-620 colon, > 100 µM; with RXF 393 renal it was > 100 µM; with HCT-15 colon it was > 100 µM; in the assay with NCI-H522 lung, 67.8 µM; with HCT-116 colon, > 100 µM. For the same compound, the TGI in the assay with BT-549 breast and with KM12 colon was > 100 µM in each case.
